US20110118269A1, “FUSED PYRAZINE COMPOUNDS AS THEIR SALTS, USEFUL FOR THE TREATMENT OF DEGENERATIVE AND INFLAMMATORY DISEASES” (priority 2009, published 2011)
In brackets after ≈: the same amount, converted by molar mass.

Tests used:
[1] = Thermodynamic aqueous solubility study by HPLC (Example 5); type: physicochemical; conditions: thermodynamic from solid
Source text: Quantitation is done by HPLC with reference to a standard calibration curve. […] If there is sufficient solid remaining, the XRPD is collected.

[2] = test system: MMP1 expression by synovial fibroblasts; assay: 'MMP assay': complex trigger induced MMP1 expression by RASFs, compound testing; type: cell-based; conditions: Homo sapiens, Fibroblast, 48 hrs
Method: A 384-well format ELISA for measurement of MMP1 is developed. Various primary antibodies are tested, as well as various ELISA protocols. The following protocol is developed and validated to measure MMP1 levels in SF supernatant in 384 well plates: white Lumitrac 600 384 well plates (Greiner) are coated with 2 μg/mL anti-MMP1 antibody MAB1346 (Chemicon). The antibody is diluted in buffer 40 (1.21 g Tris base (Sigma), 0.58 g NaCl (Calbiochem) and 5 mL 10% NaN3 (Sigma) in 1 L milliQ water and adjusted to pH 8.5). After overnight incubation at 4° C., plates are washed with PBS (80 g NaCl, 2g KCl (Sigma), 11.5 g Na2HPO4.7H2O and 2 g KH2PO4 in 10 L milliQ; pH 7.4) and blocked with 100 μL/well Casein buffer (2% Casein (VWR International) in PBS). Next day, casein buffer is removed from ELISA plates and replaced by 50 μL/well EC buffer (4 g casein, 2.13 g Na2HPO4 (Sigma), 2 g bovine albumin (Sigma), 0.69 g NaH2PO4.H2O (Sigma), 0.5 g CHAPS (Roche), 23.3 g NaCl, 4 mL 0.5 M EDTA pH 8 (Invitrogen), 5 mL 10% NaN3 in 1 L milliQ and adjusted to pH 7.0). 0.25 mM DTT (Sigma) is added to the thawed samples plates. After removal of the EC buffer, 20 μL of sample is transferred to the ELISA plates. […] Readout is performed on the Luminoscan Ascent Luminometer (Labsystems) with an integration time of 200 msec or with an Envision reader (Perkin Elmer). […]

[3] = test system: Collagen-Induced Arthritis model; assay: CIA model; type: in vivo, mouse; conditions: 3 or 30 mg/kg/d, daily for 14 days
Method: Complete Freund Adjuvant/Collagen II (CFA/Coll II, bovine) is injected (1 mg/mL, 100 μL per animal) into the tail (intradermic) at the start of the experiment. Incomplete Freund Adjuvant /Collagen II (IFA/Coll II) is injected into the tail at the same level (1 mg/mL, 100 μL per animal) 21 days after CFA/Coll II injection. Animals are then randomized based on score and assigned to treatment groups assuring an equal distribution of score in the different groups. Treatment with either the test compound (1 mg/kg/d, 3 mg/kg/d or 30 mg/kg/d), positive control (Enbrel, 10 mg/kg/3× week, ip) or vehicle (Methyl Cellulose, 1% DMSO) starts at day 8 post IFA/Coll II-boost (i.e. […] of the experiment). Animals are dosed daily with the test compound, positive control or vehicle for 14 days. The animals are scored daily for clinical symptoms, scoring is reported for the individual paws. During the treatment period the body weight of the animals is monitored. Bone protection is analysed by x-ray imaging.

[4] = test system: TNF-α; assay: Septic shock model (LPS induced TNF alpha release); type: in vivo, BALB/cJ female mice; conditions: 3, 10 and 20 mg/kg, po, once, 30 min before LPS
Method: Injection of lipopolysaccharide (LPS) induces a rapid release of soluble tumour necrosis factor (TNF-α) into the periphery. This model is used to analyse prospective blockers of TNF release in vivo.
Six BALB/cJ female mice (20 g) per group are treated at the intended dosing once, po. Thirty minutes later, LPS (15 mg/kg; E. coli serotype 0111:B4) is injected ip. Ninety minutes later, mice are euthanized and blood is collected. Circulating TNF alpha levels are determined using commercially available ELISA kits. Dexamethasone (5 mg/kg) is used as a reference anti-inflammatory compound. Compound 1 is efficacious at 3, 10 and 20 mg/kg, po.

With `CC(C)N1C[C@@H]2C[C@H]1CN2c1ccc(Nc2ncc(-c3coc(C(N)=O)c3)n3ncnc23)cc1` [Compound 1, 4-{8-[4-((1S,4S)-5-Isopropyl-2,5-diaza-bicyclo[2.2.1]hept-2-yl)-phenylamino]-[1,2,4]triazolo[1,5-a]pyrazin-5-yl}-furan-2-carboxamide] the solubility ([1]; buffer pH 2.0, pH 2, aqueous buffer) was 300 µg/mL (≈ 654 µM), the solubility ([1]; buffer pH 7.4, pH 7.4, aqueous buffer) was 10 µg/mL (≈ 21.8 µM) and the solubility ([1]; pure water, water) was 10 µg/mL (≈ 21.8 µM). The IC50 [2] was 100 to 1000 nM, the “efficacy in CIA model” value [3] was “efficacious” and the “efficacy in septic shock model (circulating TNF alpha levels)” value [4] was “efficacious”.
